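In this assay, cells in 96-well plates receive the compound at five concentrations for 48 hours. Endpoints are linearly interpolated between the surrounding concentrations. Here, GI50 denotes the concentration required for 50% inhibition of growth. At the TGI there is no net growth.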
Tests used:
Experiment in all cases: growth of human tumour cells (NCI), 48 h
[1] = system: HCT-15 colon
[2] = system: SF-268 CNS
[3] = system: K-562 leukemia
[4] = system: U251 CNS
[5] = system: HL-60(TB) leukemia
[6] = system: OVCAR-4 ovarian
[7] = system: RXF 393 renal
[8] = system: HCT-116 colon
[9] = system: SK-MEL-2 melanoma
[10] = system: 786-0 renal
[11] = system: NCI/ADR-RES ovarian
[12] = system: OVCAR-8 ovarian
[13] = system: SF-539 CNS
[14] = system: CAKI-1 renal
[15] = system: EKVX NSCLC
[16] = system: NCI-H23 lung
[17] = system: DU-145 prostate
[18] = system: UACC-257 melanoma
[19] = system: T-47D breast
[20] = system: OVCAR-3 ovarian
[21] = system: SNB-19 CNS
[22] = system: HOP-62 NSCLC
[23] = system: SNB-75 CNS
[24] = system: NCI-H226 lung
[25] = system: MDA-MB-435
[26] = system: KM12 colon
[27] = system: MALME-3M melanoma
[28] = system: A498 renal
[29] = system: COLO 205 colon
[30] = system: MOLT-4 leukemia
[31] = system: OVCAR-5 ovarian
[32] = system: NCI-H522 lung
[33] = system: PC-3 prostate
[34] = system: UACC-62 melanoma
[35] = system: BT-549 breast
[36] = system: ACHN renal
[37] = system: HT29 colon
[38] = system: HOP-92 NSCLC
[39] = system: SN12C renal
[40] = system: UO-31 renal
[41] = system: SK-MEL-28 melanoma
[42] = system: A549 NSCLC
[43] = system: TK-10 renal
[44] = system: M14 melanoma
[45] = system: HCC-2998 colon
[46] = system: SK-MEL-5 melanoma
[47] = system: RPMI-8226 leukemia
[48] = system: IGROV1 ovarian
[49] = system: CCRF-CEM leukemia
[50] = system: SK-OV-3 ovarian
[51] = system: LOX IMVI melanoma
[52] = system: SR leukemia
[53] = system: HS 578T breast
[54] = system: SF-295 CNS
[55] = system: MCF7 breast
[56] = system: NCI-H460 lung
[57] = system: SW-620 colon
[58] = system: MDA-MB-231 breast

For `Fc1cc(Nc2ccc3c(OCCCN4CCOCC4)cccc3n2)ccc1Cl`, the GI50 [1] was 1400 nM, the TGI [1] was 3.06 µM and the GI50 [2] was 3130 nM. The TGI [2] was 17 µM, the GI50 [3] was 1910 nM and the TGI [3] was 4.38 µM. The GI50 [4] was 1850 nM, the TGI [4] was 3.75 µM and the GI50 [5] was 2680 nM. For the same compound, the TGI [5] was 7.77 µM, the GI50 [6] was 3.75 µM and the TGI [6] was 88.5 µM. For the same compound, the GI50 [7] was 2160 nM, the TGI [7] was 4.74 µM and the GI50 [8] was 2760 nM. It also gave a TGI [8] of 7.16 µM, a GI50 [9] of 1.96 µM and a TGI [9] of 4.04 µM. For the same compound, the GI50 [10] was 1790 nM, the TGI [10] was 3.53 µM and the GI50 [11] was 3090 nM. The TGI [11] was 11.2 µM, the GI50 [12] was 4.03 µM and the TGI [12] was 15.3 µM. It also gave a GI50 [13] of 1950 nM, a TGI [13] of 4.01 µM and a GI50 [14] of 1890 nM. The TGI [14] was 5.1 µM, the GI50 [15] was 2370 nM and the TGI [15] was 6.2 µM. It also gave a GI50 [16] of 2.21 µM, a TGI [16] of 5.38 µM and a GI50 [17] of 3.62 µM. It also gave a TGI [17] of 13.1 µM, a GI50 [18] of 2180 nM and a TGI [18] of 4.25 µM. It also gave a GI50 [19] of 2270 nM, a TGI [19] of 7.16 µM and a GI50 [20] of 3080 nM. For the same compound, the TGI [20] was 10.1 µM, the GI50 [21] was 2210 nM and the TGI [21] was 5.29 µM. It also gave a GI50 [22] of 1710 nM, a TGI [22] of 3.43 µM and a GI50 [23] of 1860 nM. It also gave a TGI [23] of 6.2 µM, a GI50 [24] of 2760 nM and a TGI [24] of 7.83 µM. For the same compound, the GI50 [25] was 2.05 µM, the TGI [25] was 4.83 µM and the GI50 [26] was 2300 nM. It also gave a TGI [26] of 5.46 µM, a GI50 [27] of 1910 nM and a TGI [27] of 4.36 µM. For the same compound, the GI50 [28] was 2420 nM, the TGI [28] was 6.73 µM and the GI50 [29] was 1820 nM. The TGI [29] was 3.43 µM, the GI50 [30] was 1680 nM and the TGI [30] was 3.88 µM. The GI50 [31] was 2.13 µM, the TGI [31] was 4.88 µM and the GI50 [32] was 1.72 µM. It also gave a TGI [32] of 3.35 µM, a GI50 [33] of 2080 nM and a TGI [33] of 5.83 µM. The GI50 [34] was 2320 nM, the TGI [34] was 5.61 µM and the GI50 [35] was 5.16 µM. For the same compound, the TGI [35] was 18.7 µM, the GI50 [36] was 3.09 µM and the TGI [36] was 10.8 µM. It also gave a GI50 [37] of 1530 nM, a TGI [37] of 3 µM and a GI50 [38] of 2400 nM. It also gave a TGI [38] of 6.26 µM, a GI50 [39] of 4.36 µM and a TGI [39] of 19.3 µM. For the same compound, the GI50 [40] was 1.65 µM, the TGI [40] was 4.11 µM and the GI50 [41] was 1820 nM. The TGI [41] was 3.56 µM, the GI50 [42] was 2960 nM and the TGI [42] was 8.47 µM. It also gave a GI50 [43] of 2010 nM, a TGI [43] of 4.1 µM and a GI50 [44] of 2050 nM. The TGI [44] was 4.42 µM, the GI50 [45] was 1780 nM and the TGI [45] was 3.49 µM. For the same compound, the GI50 [46] was 2100 nM, the TGI [46] was 4.39 µM and the GI50 [47] was 2640 nM. The TGI [47] was 6.97 µM, the GI50 [48] was 3.19 µM and the TGI [48] was 9.32 µM. It also gave a GI50 [49] of 2480 nM, a TGI [49] of 8.66 µM and a GI50 [50] of 2.24 µM. The TGI [50] was 4.72 µM, the GI50 [51] was 1710 nM and the TGI [51] was 3.17 µM. The GI50 [52] was 1690 nM, the TGI [52] was 6.64 µM and the GI50 [53] was 2190 nM. The TGI [53] was 6 µM, the GI50 [54] was 1970 nM and the TGI [54] was 3.96 µM.
In the case of `ClCc1ccc(Cn2cnc3ncnc(Cl)c32)cc1`, the GI50 [2] is reported as 1640 nM, the TGI [2] is reported as 3.43 µM and the GI50 [3] is reported as 3030 nM. It also gave a TGI [3] of over 100 µM, a GI50 [4] of 1090 nM and a TGI [4] of 2.29 µM. It also gave a GI50 [7] of 1670 nM, a TGI [7] of 4.14 µM and a GI50 [9] of 6.3 µM. For the same compound, the TGI [9] was over 100 µM, the GI50 [10] was 1680 nM and the TGI [10] was 3.05 µM. For the same compound, the GI50 [11] was 1810 nM, the TGI [11] was 4.68 µM and the GI50 [12] was 3.14 µM. The TGI [12] was 11 µM, the GI50 [13] was 2080 nM and the TGI [13] was 3.74 µM. It also gave a GI50 [14] of 2010 nM, a TGI [14] of 4.42 µM and a GI50 [15] of 2250 nM. It also gave a TGI [15] of 4.45 µM, a GI50 [16] of 16 µM and a TGI [16] of 30.6 µM. It also gave a GI50 [18] of 1570 nM, a TGI [18] of 3.48 µM and a GI50 [19] of 1290 nM. The TGI [19] was 2.86 µM, the GI50 [20] was 1800 nM and the TGI [20] was 3.39 µM. The GI50 [21] was 1720 nM, the TGI [21] was 3.15 µM and the GI50 [22] was 1780 nM. For the same compound, the TGI [22] was 3.16 µM, the GI50 [24] was 2990 nM and the TGI [24] was 12 µM. The GI50 [25] was 5.82 µM, the TGI [25] was 19.2 µM and the GI50 [26] was 1660 nM. For the same compound, the TGI [26] was 3.48 µM, the GI50 [28] was 1810 nM and the TGI [28] was 3.37 µM. For the same compound, the GI50 [29] was 1900 nM, the TGI [29] was 3.78 µM and the GI50 [31] was 6.26 µM. For the same compound, the TGI [31] was 19.7 µM, the GI50 [32] was 4.3 µM and the TGI [32] was over 100 µM. The GI50 [33] was 1580 nM, the TGI [33] was 2.93 µM and the GI50 [34] was 2500 nM. The TGI [34] was 12 µM, the GI50 [35] was 3.75 µM and the TGI [35] was 16.9 µM. It also gave a GI50 [37] of 1220 nM, a TGI [37] of 3.59 µM and a GI50 [38] of 1170 nM. It also gave a TGI [38] of 2.52 µM, a GI50 [39] of 3.61 µM and a TGI [39] of 14.9 µM. For the same compound, the GI50 [55] was 1350 nM, the TGI [55] was 2940 nM and the GI50 [40] was 4.82 µM. The TGI [40] was 66.7 µM, the GI50 [42] was 1810 nM and the TGI [42] was 4.13 µM. For the same compound, the GI50 [43] was 1480 nM, the TGI [43] was 2.92 µM and the GI50 [44] was 2730 nM. The TGI [44] was 13 µM, the GI50 [45] was 1420 nM and the TGI [45] was 2.87 µM. The GI50 [56] was 1780 nM, the TGI [56] was 4.31 µM and the GI50 [46] was 2820 nM. The TGI [46] was 12.1 µM, the GI50 [57] was 2580 nM and the TGI [57] was 7.18 µM. For the same compound, the GI50 [47] was 1280 nM, the TGI [47] was 2.67 µM and the GI50 [48] was 7.61 µM. It also gave a TGI [48] of 31.1 µM, a GI50 [50] of 11.3 µM and a TGI [50] of 23.3 µM. It also gave a GI50 [58] of 1760 nM, a TGI [58] of 3.35 µM and a GI50 [52] of 822 nM. For the same compound, the TGI [52] was 2.7 µM, the GI50 [53] was 1740 nM and the TGI [53] was 4.3 µM. It also gave a GI50 [54] of 2060 nM and a TGI [54] of 5.07 µM.

From PubChem BioAssay (NCI)
